Measured values: patent US8546427B2, “Tetrahydroquinoline derivatives” (Hoffmann-La Roche Inc., priority 2010, dated 2013)

Test system: AMP-activated protein kinase (AMPK)
Assay: ADP Quest assay for AMPK activators
Type: biochemical
Set-up: key: fold AMPK activation at 30 μM activator vs none
Conditions: fold of AMPK activation to phosphorylate SAMS peptide without and with an activator at the concentration of 30 μM
Experimental: This method evaluates AMP-activated protein kinase (AMPK) activity through detecting the accumulation of ADP product using an ADP Quest kit and determining the E30 values of the small molecular AMPK activators. ADP Quest kit (DiscoveRx, Fremont, Calif.) is stored at −20° C. before use. Before an experiment, thaw the kit (include assay buffer, ADP standard solution, reagent A and reagent B) and equilibrate to room temperature. Dispense the ADP Quest reagents into single-use aliquots and store at −20° C. The compound concentrations typically range from 0 μM to 100 μM by 2-fold dilution. AMP concentrations range from 0.98 μM to 1 mM as the reference control. In an assay, thaw and equilibrate the assay buffer, reagent A and reagent B to room temperature for 30 minutes prior to use. Mix ATP, SAMS peptide substrate and compound, and place them into the 384-well assay plate. Add reagent A and B based on the assay kit protocol. Incubate the assay plate at room temperature for 30 minutes after addition the mixture followed by the addition of AMPK protein (Invitrogen, CA) to initiate the AMPK phosphorylation reaction. At the same time, reactions with AMPK activator AMP in the absence of enzyme is included as blank control. The reaction fluorescence signal is monitored and recorded on Envision in kinetic mode with the excitation wavelength of 530 nm and emission wavelength of 590 nm. The E30 value, defined as the fold of AMPK activation to phosphorylate SAMS peptide without and with an activator at the concentration of 30 μM, is calculated and analyzed using Prism 5.0.

SMILES | E30
CC(C)(Nc1cccc(C2CC(C)(C)c3cc(Cl)ccc3N2)c1)C(=O)O (stereo not drawn) [Example 1, 2-[3-(6-Chloro-4,4-dimethyl-1,2,3,4-tetrahydro-quinolin-2-yl)-phenylamino]-2-methyl-propionic acid] | 3.30
CC1(C)CC(c2cccc(NC3(C(=O)O)CC3)c2)Nc2ccc(Cl)cc21 (stereo not drawn) [Example-2, 1-[3-(6-Chloro-4,4-dimethyl-1,2,3,4-tetrahydro-quinolin-2-yl)-phenylamino]-cyclopropanecarboxylic acid] | 2.63
CC(C)(Nc1cccc(C2CC(C)(C)c3cc(C#N)ccc3N2)c1)C(=O)O (stereo not drawn) [Example-3, 2-[3-(6-Cyano-4,4-dimethyl-1,2,3,4-tetrahydro-quinolin-2-yl)-phenylamino]-2-methyl-propionic acid] | 2.88
CC1(C)CC(c2cccc(NC3(C(=O)O)CC3)c2)Nc2ccc(C#N)cc21 (stereo not drawn) [Example-4, 1-[3-(6-Cyano-4,4-dimethyl-1,2,3,4-tetrahydro-quinolin-2-yl)-phenylamino]-cyclopropanecarboxylic acid] | 2.43
CC1(C)CC(c2cccc(NC3(C(=O)O)CC3)c2)Nc2c(C(=O)O)cccc21 (stereo not drawn) [Example-5, 2-[3-(1-Carboxy-cyclopropylamino)-phenyl]-4,4-dimethyl-1,2,3,4-tetrahydro-quinoline-8-carboxylic acid] | 2.44
CC1(C)CC(c2cccc(NC3(C(=O)O)CC3)c2)Nc2c(C(=O)O)cc(Cl)cc21 (stereo not drawn) [Example-6, 2-[3-(1-Carboxy-cyclopropylamino)-phenyl]-6-chloro-4,4-dimethyl-1,2,3,4-tetrahydro-quinoline-8-carboxylic acid] | 2.72
CC(C)(Nc1cccc(C2CC(C)(C)c3cc(Cl)cc(C(=O)O)c3N2)c1)C(=O)O (stereo not drawn) [Example-7, 2-[3-(1-Carboxy-1-methyl-ethylamino)-phenyl]-6-chloro-4,4-dimethyl-1,2,3,4-tetrahydro-quinoline-8-carboxylic acid] | 2.27
Cc1cc(C#N)cc2c1NC(c1cccc(NC3(C(=O)O)CC3)c1)CC2(C)C (stereo not drawn) [Example-8, 1-[3-(6-Cyano-4,4,8-trimethyl-1,2,3,4-tetrahydro-quinolin-2-yl)-phenylamino]-cyclopropanecarboxylic acid] | 1.68
CC(C)(Nc1cccc(C2CC(C)(C)c3cc(C(F)(F)F)ccc3N2)c1)C(=O)O (stereo not drawn) [Example-9, 2-[3-(4,4-Dimethyl-6-trifluoromethyl-1,2,3,4-tetrahydro-quinolin-2-yl)-phenylamino]-2-methyl-propionic acid] | 2.34
CC1(C)CC(c2ccccc2NS(C)(=O)=O)Nc2ccc(Cl)cc21 (stereo not drawn) [Example-10, N-[2-(6-Chloro-4,4-dimethyl-1,2,3,4-tetrahydro-quinolin-2-yl)-phenyl]-methanesulfonamide] | 1.70
CN1c2ccc(C(F)(F)F)cc2C(C)(C)CC1c1cccc(NC(C)(C)C(=O)O)c1 (stereo not drawn) [Example-11, 2-Methyl-2-[3-(1,4,4-trimethyl-6-trifluoromethyl-1,2,3,4-tetrahydro-quinolin-2-yl)-phenylamino]-propionic acid] | 2.48
Cc1cc(C#N)cc2c1NC(c1cccc(NC(C)(C)C(=O)O)c1)CC2(C)C (stereo not drawn) [Example-12, 2-[3-(6-Cyano-4,4,8-trimethyl-1,2,3,4-tetrahydro-quinolin-2-yl)-phenylamino]-2-methyl-propionic acid] | 2.37
CN1c2ccc(C(F)(F)F)cc2C(C)(C)CC1c1cccc(NC2(C(=O)O)CC2)c1 (stereo not drawn) [Example-13, 1-[3-(1,4,4-Trimethyl-6-trifluoromethyl-1,2,3,4-tetrahydro-quinolin-2-yl)-phenylamino]-cyclopropanecarboxylic acid] | 2.08
CC1(C)CC(c2ccccc2NS(=O)(=O)c2cccc(F)c2)Nc2ccc(Cl)cc21 (stereo not drawn) [Example-14, N-[2-(6-Chloro-4,4-dimethyl-1,2,3,4-tetrahydro-quinolin-2-yl)-phenyl]-3-fluoro-benzenesulfonamide] | 1.78
CC(C)(Nc1cccc(C2CC(C)(C)c3cccc(C(=O)O)c3N2)c1)C(=O)O (stereo not drawn) [Example-15, 2-[3-(1-Carboxy-1-methyl-ethylamino)-phenyl]-4,4-dimethyl-1,2,3,4-tetrahydro-quinoline-8-carboxylic acid] | 1.88
CCS(=O)(=O)Nc1ccccc1C1CC(C)(C)c2cc(Cl)ccc2N1 (stereo not drawn) [Example-16, Ethanesulfonic acid [2-(6-chloro-4,4-dimethyl-1,2,3,4-tetrahydro-quinolin-2-yl)-phenyl]-amide] | 1.89
CC1(C)CC(c2cccc(NC3(C(=O)O)CC3)c2)Nc2ccc(C(F)(F)F)cc21 (stereo not drawn) [Example-17, 1-[3-(4,4-Dimethyl-6-trifluoromethyl-1,2,3,4-tetrahydro-quinolin-2-yl)-phenylamino]-cyclopropanecarboxylic acid] | 1.91

SMILES | E30
CC1(C)CC(c2cccc(NC3(C(=O)O)CC3)c2)Nc2c(Cl)cc(C#N)cc21 (stereo not drawn) [Example-18, 1-[3-(8-Chloro-6-cyano-4,4-dimethyl-1,2,3,4-tetrahydro-quinolin-2-yl)-phenylamino]-cyclopropanecarboxylic acid] | 1.79
CC1(C)CC(c2ccccc2NS(=O)(=O)c2ccc(F)cc2)Nc2ccc(Cl)cc21 (stereo not drawn) [Example-19, N-[2-(6-Chloro-4,4-dimethyl-1,2,3,4-tetrahydro-quinolin-2-yl)-phenyl]-4-fluoro-benzenesulfonamide] | 1.64
CC(C)(Nc1ccccc1C1CC(C)(C)c2cc(C#N)ccc2N1)C(=O)O (stereo not drawn) [Example-20, 2-[2-(6-Cyano-4,4-dimethyl-1,2,3,4-tetrahydro-quinolin-2-yl)-phenylamino]-2-methyl-propionic acid] | 1.57
CC1(C)CC(c2ccccc2NS(=O)(=O)c2ccccc2F)Nc2ccc(Cl)cc21 (stereo not drawn) [Example-21, N-[2-(6-Chloro-4,4-dimethyl-1,2,3,4-tetrahydro-quinolin-2-yl)-phenyl]-2-fluoro-benzenesulfonamide] | 1.75
CC1(C)CC(c2ccccc2NC2(C(=O)O)CC2)Nc2ccc(Cl)cc21 (stereo not drawn) [Example-22, 1-[2-(6-Chloro-4,4-dimethyl-1,2,3,4-tetrahydro-quinolin-2-yl)-phenylamino]-cyclopropanecarboxylic acid] | 1.40
CC1(C)CC(c2ccccc2NS(C)(=O)=O)Nc2ccc(C#N)cc21 (stereo not drawn) [Example-23, N-[2-(6-Cyano-4,4-dimethyl-1,2,3,4-tetrahydro-quinolin-2-yl)-phenyl]-methanesulfonamide] | 1.14
CN1c2ccc(C#N)cc2C(C)(C)CC1c1cccc(NC(C)(C)C(=O)O)c1 (stereo not drawn) [Example-24, 2-[3-(6-Cyano-1,4,4-trimethyl-1,2,3,4-tetrahydro-quinolin-2-yl)-phenylamino]-2-methyl-propionic acid] | 3.22
CC1(C)CC(c2ccccc2NC2(C(=O)O)CC2)Nc2ccc(C#N)cc21 (stereo not drawn) [Example-25, 1-[2-(6-Cyano-4,4-dimethyl-1,2,3,4-tetrahydro-quinolin-2-yl)-phenylamino]-cyclopropanecarboxylic acid] | 2.02
CC(C)(Nc1ccccc1C1CC(C)(C)c2cc(Cl)ccc2N1)C(=O)O (stereo not drawn) [Example-26, 2-[2-(6-Chloro-4,4-dimethyl-1,2,3,4-tetrahydro-quinolin-2-yl)-phenylamino]-2-methyl-propionic acid] | 1.26
CN1c2ccc(C#N)cc2C(C)(C)CC1c1cccc(NC2(C(=O)O)CC2)c1 (stereo not drawn) [Example-28, 1-[3-(6-Cyano-1,4,4-trimethyl-1,2,3,4-tetrahydro-quinolin-2-yl)-phenylamino]-cyclopropanecarboxylic acid] | 2.46
CC(C)(Nc1cccc(C2CC(C)(C)c3cc(C#N)cc(Cl)c3N2)c1)C(=O)O (stereo not drawn) [Example-29, 2-[3-(8-Chloro-6-cyano-4,4-dimethyl-1,2,3,4-tetrahydro-quinolin-2-yl)-phenylamino]-2-methyl-propionic acid] | 2.70
Cc1cc(F)cc2c1NC(c1cccc(NC(C)(C)C(=O)O)c1)CC2(C)C (stereo not drawn) [Example-31, 2-[3-(6-Fluoro-4,4,8-trimethyl-1,2,3,4-tetrahydro-quinolin-2-yl)-phenylamino]-2-methyl-propionic acid] | 2.16
CC1(C)CC(c2ccccc2NC(=O)c2ccc(F)cc2)Nc2ccc(C(=O)O)cc21 (stereo not drawn) [Example-32, 2-[2-(4-Fluoro-benzoylamino)-phenyl]-4,4-dimethyl-1,2,3,4-tetrahydro-quinoline-6-carboxylic acid] | 1.31
CCS(=O)(=O)Nc1ccccc1C1CC(C)(C)c2cc(C(=O)O)ccc2N1 (stereo not drawn) [Example-33, 2-(2-Ethanesulfonylamino-phenyl)-4,4-dimethyl-1,2,3,4-tetrahydro-quinoline-6-carboxylic acid] | 2.13
CC1(C)CC(c2ccccc2NS(=O)(=O)c2cccnc2)Nc2ccc(C(=O)O)cc21 (stereo not drawn) [Example-34, 4,4-Dimethyl-2-[2-(pyridine-3-sulfonylamino)-phenyl]-1,2,3,4-tetrahydro-quinoline-6-carboxylic acid] | 2.39
CC1(C)CC(c2ccccc2NC(=O)c2ccccc2F)Nc2ccc(C(=O)O)cc21 (stereo not drawn) [Example-35, 2-[2-(2-Fluoro-benzoylamino)-phenyl]-4,4-dimethyl-1,2,3,4-tetrahydro-quinoline-6-carboxylic acid] | 1.23
